Test results reported in the supplement of paper PMC9663587.

What follows are cell lines tested with CN(C)C/C=C/C(=O)Nc1ccc(C(=O)N2CCC[C@@H](Nc3ncc(Cl)c(-c4c[nH]c5ccccc45)n3)C2)cc1 [THZ531] (assay: GR value, 72 h; higher = faster growth (1 = untreated, <0 = killing)). Conditions: 0.01 µM.
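Also: breast cancer and non-malignant breast epithelial lines, nine half-log doses, viable cells counted by Hoechst and LIVE/DEAD dye imaging versus time-zero plates and DMSO controls.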

| Cell Line | GR value |
| --- | --- |
| UACC812 | 0.851 GR |
| UACC893 | 1.08 GR |
| ZR751 | 1.03 GR |
| ZR7530 | 1.02 GR |

Same assay, conditions: 0.03162 µM

| Cell Line | GR value |
| --- | --- |
| UACC812 | 0.958 GR |
| UACC893 | 0.743 GR |
| ZR751 | 0.969 GR |
| ZR7530 | 0.98 GR |

Same assay, conditions: 0.1 µM

| Cell Line | GR value |
| --- | --- |
| UACC812 | 0.942 GR |
| UACC893 | -0.298 GR |
| ZR751 | 0.991 GR |
| ZR7530 | -0.379 GR |

Same assay, conditions: 0.3162 µM

| Cell Line | GR value |
| --- | --- |
| UACC812 | 1.17 GR |
| UACC893 | -0.396 GR |
| ZR751 | 0.856 GR |
| ZR7530 | -0.732 GR |

Same assay, conditions: 1 µM

| Cell Line | GR value |
| --- | --- |
| UACC812 | 0.547 GR |
| UACC893 | -0.421 GR |
| ZR751 | -0.208 GR |
| ZR7530 | -0.42 GR |

What follows are cell lines tested with CC(=O)c1c(C)c2cnc(Nc3ccc(N4CCN(CCOCCOCCOCCNC(=O)COc5cccc6c5C(=O)N(C5CCC(=O)NC5=O)C6=O)CC4)cn3)nc2n(C2CCCC2)c1=O [BSJ-03-123] in the same assay as above. Conditions: 0.001 µM.

| Cell Line | GR value |
| --- | --- |
| UACC812 | 0.833 GR |
| UACC893 | 0.933 GR |
| ZR751 | 0.927 GR |
| ZR7530 | 0.784 GR |

Same assay, conditions: 0.003162 µM

| Cell Line | GR value |
| --- | --- |
| UACC812 | 0.862 GR |
| UACC893 | 0.792 GR |
| ZR751 | 0.911 GR |
| ZR7530 | 0.857 GR |

Same assay, conditions: 0.01 µM

| Cell Line | GR value |
| --- | --- |
| UACC812 | 0.699 GR |
| UACC893 | 0.726 GR |
| ZR751 | 0.863 GR |
| ZR7530 | 0.824 GR |

Same assay, conditions: 0.03162 µM

| Cell Line | GR value |
| --- | --- |
| UACC812 | 0.711 GR |
| UACC893 | 0.878 GR |
| ZR751 | 0.788 GR |
| ZR7530 | 0.72 GR |

Same assay, conditions: 0.1 µM

| Cell Line | GR value |
| --- | --- |
| UACC812 | 0.74 GR |
| UACC893 | 0.644 GR |
| ZR751 | 0.838 GR |
| ZR7530 | 0.835 GR |

Same assay, conditions: 0.3162 µM

| Cell Line | GR value |
| --- | --- |
| UACC812 | 0.887 GR |
| UACC893 | 0.502 GR |
| ZR751 | 0.697 GR |
| ZR7530 | 0.615 GR |

Same assay, conditions: 1 µM

| Cell Line | GR value |
| --- | --- |
| UACC812 | 0.48 GR |
| UACC893 | 0.538 GR |
| ZR751 | 0.625 GR |
| ZR7530 | 0.398 GR |

Same assay, conditions: 3.162 µM

| Cell Line | GR value |
| --- | --- |
| UACC812 | 0.408 GR |
| UACC893 | 0.498 GR |
| ZR751 | 0.617 GR |
| ZR7530 | 0.395 GR |

Same assay, conditions: 10 µM

| Cell Line | GR value |
| --- | --- |
| UACC812 | -0.328 GR |
| UACC893 | 0.283 GR |
| ZR751 | 0.22 GR |
| ZR7530 | -0.258 GR |

These cell lines were tested with C=CC(=O)Nc1ccc(C(=O)Nc2[nH]nc3c2CN(C(=O)N[C@H](CN(C)C)c2ccccc2)C3(C)C)cc1 [YKL-5-124] in the same assay as above. Conditions: 0.001 µM.

| Cell Line | GR value |
| --- | --- |
| UACC812 | 0.609 GR |
| UACC893 | 0.472 GR |
| ZR751 | 0.57 GR |
| ZR7530 | 0.344 GR |

Same assay, conditions: 0.003162 µM

| Cell Line | GR value |
| --- | --- |
| UACC812 | 0.318 GR |
| UACC893 | 0.473 GR |
| ZR751 | 0.342 GR |
| ZR7530 | 0.254 GR |

Same assay, conditions: 0.01 µM

| Cell Line | GR value |
| --- | --- |
| UACC812 | 0.142 GR |
| UACC893 | 0.363 GR |
| ZR751 | 0.325 GR |
| ZR7530 | 0.245 GR |

Same assay, conditions: 0.03162 µM

| Cell Line | GR value |
| --- | --- |
| UACC812 | -0.122 GR |
| UACC893 | 0.342 GR |
| ZR751 | 0.282 GR |
| ZR7530 | 0.309 GR |

Same assay, conditions: 0.1 µM

| Cell Line | GR value |
| --- | --- |
| UACC812 | -0.106 GR |
| UACC893 | 0.215 GR |
| ZR751 | 0.254 GR |
| ZR7530 | 0.197 GR |

Same assay, conditions: 0.3162 µM

| Cell Line | GR value |
| --- | --- |
| UACC812 | -0.151 GR |
| UACC893 | 0.246 GR |
| ZR751 | 0.238 GR |
| ZR7530 | 0.138 GR |

Same assay, conditions: 1 µM

| Cell Line | GR value |
| --- | --- |
| UACC812 | 0.0505 GR |
| UACC893 | 0.219 GR |
| ZR751 | 0.239 GR |
| ZR7530 | 0.176 GR |

Same assay, conditions: 3.162 µM

| Cell Line | GR value |
| --- | --- |
| UACC812 | -0.246 GR |
| UACC893 | 0.119 GR |
| ZR751 | 0.223 GR |
| ZR7530 | 0.177 GR |

Same assay, conditions: 10 µM

| Cell Line | GR value |
| --- | --- |
| UACC812 | -0.423 GR |
| UACC893 | -0.629 GR |
| ZR751 | 0.128 GR |
| ZR7530 | -0.625 GR |

What follows are cell lines tested with CCN1CCN(Cc2ccc(Nc3ncc(F)c(-c4cc(F)c5nc(C)n(C(C)C)c5c4)n3)nc2)CC1 in the same assay as above. Conditions: 0.001 µM.

| Cell Line | GR value |
| --- | --- |
| UACC812 | 0.849 GR |
| UACC893 | 0.682 GR |
| ZR751 | 0.95 GR |
| ZR7530 | 1.05 GR |

Same assay, conditions: 0.003162 µM

| Cell Line | GR value |
| --- | --- |
| UACC812 | 0.562 GR |
| UACC893 | 0.508 GR |
| ZR751 | 0.94 GR |
| ZR7530 | 1.03 GR |

Same assay, conditions: 0.01 µM

| Cell Line | GR value |
| --- | --- |
| UACC812 | 0.349 GR |
| UACC893 | 0.42 GR |
| ZR751 | 0.843 GR |
| ZR7530 | 0.769 GR |

Same assay, conditions: 0.03162 µM

| Cell Line | GR value |
| --- | --- |
| UACC812 | -0.073 GR |
| UACC893 | 0.344 GR |
| ZR751 | 0.604 GR |
| ZR7530 | 0.57 GR |

Same assay, conditions: 0.1 µM

| Cell Line | GR value |
| --- | --- |
| UACC812 | -0.212 GR |
| UACC893 | 0.305 GR |
| ZR751 | 0.461 GR |
| ZR7530 | 0.322 GR |

Same assay, conditions: 0.3162 µM

| Cell Line | GR value |
| --- | --- |
| UACC812 | -0.252 GR |
| UACC893 | 0.272 GR |
| ZR751 | 0.366 GR |
| ZR7530 | 0.276 GR |

Same assay, conditions: 1 µM

| Cell Line | GR value |
| --- | --- |
| UACC812 | -0.319 GR |
| UACC893 | 0.262 GR |
| ZR751 | 0.351 GR |
| ZR7530 | 0.282 GR |

Same assay, conditions: 3.162 µM

| Cell Line | GR value |
| --- | --- |
| UACC812 | -0.407 GR |
| UACC893 | 0.241 GR |
| ZR751 | 0.309 GR |
| ZR7530 | 0.229 GR |

Same assay, conditions: 10 µM

| Cell Line | GR value |
| --- | --- |
| UACC812 | -0.565 GR |
| UACC893 | -0.088 GR |
| ZR751 | 0.38 GR |
| ZR7530 | 0.127 GR |

Each cell line was assayed with CC(=O)c1c(C)c2cnc(Nc3ccc(N4CCNCC4)cn3)nc2n(C2CCCC2)c1=O in the same assay as above. Conditions: 0.0003162 µM.

| Cell Line | GR value |
| --- | --- |
| UACC812 | 1.11 GR |
| UACC893 | 0.92 GR |
| ZR751 | 1.02 GR |
| ZR7530 | 1.08 GR |

Same assay, conditions: 0.001 µM

| Cell Line | GR value |
| --- | --- |
| UACC812 | 0.781 GR |
| UACC893 | 0.914 GR |
| ZR751 | 0.998 GR |
| ZR7530 | 1.08 GR |

Same assay, conditions: 0.003162 µM

| Cell Line | GR value |
| --- | --- |
| UACC812 | 0.839 GR |
| UACC893 | 0.79 GR |
| ZR751 | 1.03 GR |
| ZR7530 | 1.06 GR |

Same assay, conditions: 0.01 µM

| Cell Line | GR value |
| --- | --- |
| UACC812 | 0.637 GR |
| UACC893 | 0.671 GR |
| ZR751 | 1.02 GR |
| ZR7530 | 0.858 GR |

Same assay, conditions: 0.03162 µM

| Cell Line | GR value |
| --- | --- |
| UACC812 | 0.409 GR |
| UACC893 | 0.422 GR |
| ZR751 | 1.02 GR |
| ZR7530 | 0.665 GR |

Same assay, conditions: 0.1 µM

| Cell Line | GR value |
| --- | --- |
| UACC812 | 0.173 GR |
| UACC893 | 0.406 GR |
| ZR751 | 0.844 GR |
| ZR7530 | 0.482 GR |

Same assay, conditions: 0.3162 µM

| Cell Line | GR value |
| --- | --- |
| UACC812 | 0.0192 GR |
| UACC893 | 0.366 GR |
| ZR751 | 0.719 GR |
| ZR7530 | 0.321 GR |

Same assay, conditions: 1 µM

| Cell Line | GR value |
| --- | --- |
| UACC812 | -0.127 GR |
| UACC893 | 0.358 GR |
| ZR751 | 0.637 GR |
| ZR7530 | 0.451 GR |

Same assay, conditions: 3.162 µM

| Cell Line | GR value |
| --- | --- |
| UACC812 | -0.162 GR |
| UACC893 | 0.355 GR |
| ZR751 | 0.489 GR |
| ZR7530 | 0.253 GR |
